# System: HLA-A1 supertype (A*101, A*2601, A*2902, A*3002)
# Assay type: binding, human
row,Sequence,# Alleles Bound
1,ASQGTKRSY (Influenza Virus) [SEQ ID NO: 110],1
2,GMIDGWYGY (Influenza Virus) [SEQ ID NO: 63],2
3,GMQIRGFVY (Influenza Virus) [SEQ ID NO: 207],2
4,GTEKLTITY [SEQ ID NO: 268],1
5,GTVKDRSPY (Influenza Virus) [SEQ ID NO: 86],2
6,HIASMRRNY (Influenza Virus) [SEQ ID NO: 168],1
7,ITQFESLKLY (Influenza Virus) [SEQ ID NO: 153],1
8,IVAITDWSGY (Influenza Virus) [SEQ ID NO: 88],1
9,KISPLMVAY (Influenza Virus) [SEQ ID NO: 266],2
10,KMARLGKGY (Influenza Virus) [SEQ ID NO: 209],1
11,KSCINRCFY (Influenza Virus) [SEQ ID NO: 89],1
12,KSCLPACVY [SEQ ID NO: 113],2
13,LTIGECPKY (Influenza Virus) [SEQ ID NO: 62],3
14,LVSDGGPNLY (Influenza Virus) [SEQ ID NO: 213],3
15,MLANIDLKY [SEQ ID NO: 210],3
16,MLASIDLKY [SEQ ID NO: 211],4
17,NMDRAVKLY (Influenza Virus) [SEQ ID NO: 68],3
18,QWSQEPTMLY (Influenza Virus) [SEQ ID NO: 269],2
19,RMFLAMITY (Influenza Virus) [SEQ ID NO: 208],2
20,RVSKMGVDEY (Influenza Virus) [SEQ ID NO: 267],1
21,SSLENFRAY (Influenza Virus) [SEQ ID NO: 166],1
22,STVHYPKVY (Influenza Virus) [SEQ ID NO: 265],2
23,TFEFTSFFY [SEQ ID NO: 212],3
24,TIASVPAPRY (Influenza Virus) [SEQ ID NO: 140],2
25,VSFDQNLDY (Influenza Virus) [SEQ ID NO: 87],2
26,VSHCRATEY (Influenza Virus) [SEQ ID NO: 169],1
27,VTRREVHIY [SEQ ID NO: 165],1
28,WSQDPTMLY (Influenza Virus) [SEQ ID NO: 270],4
29,YSHGTGTGY (Influenza Virus) [SEQ ID NO: 206],4
30,YVDGFEPNGY (Influenza Virus) [SEQ ID NO: 167],2

# System: HLA-A24 supertype (A*2301, A*2402, A*2902, A*3002)
# Assay type: binding, human
row,Sequence,# Alleles Bound
1,CFMYSDFHF (Influenza Virus) [SEQ ID NO: 190],3
2,EWLKTRPIL (Influenza Virus) [SEQ ID NO: 75],2
3,EYIMKGVYI (Influenza Virus) [SEQ ID NO: 192],2
4,FFENKSETW (Influenza Virus) [SEQ ID NO: 193],2
5,FFLTQGALL (Influenza Virus) [SEQ ID NO: 98],3
6,FMQALQLLF (Influenza Virus) [SEQ ID NO: 159],3
7,FYIQMCTEL [SEQ ID NO: 128],2
8,FYRYGFVANF (Influenza Virus) [SEQ ID NO: 248],2
9,HMMIWHSNL (Influenza Virus) [SEQ ID NO: 129],3
10,HYPKVYKTYF (Influenza Virus) [SEQ ID NO: 296],2
11,IFLARSALI (Influenza Virus) [SEQ ID NO: 130],2
12,IYRRFKYGL (Influenza Virus) [SEQ ID NO: 85],2
13,KFAAICTHL (Influenza Virus) [SEQ ID NO: 189],2
14,KFEEIRWLI (Influenza Virus) [SEQ ID NO: 158],2
15,LWILDRLFF (Influenza Virus) [SEQ ID NO: 84],3
16,LYASPQLEGF (Influenza Virus) [SEQ ID NO: 194],2
17,LYNKMEFEPF (Influenza Virus) [SEQ ID NO: 297],2
18,MFLAMITYI [SEQ ID NO: 245],2
19,MYQKCCNLF (Influenza Virus) [SEQ ID NO: 250],2
20,MYQKCCTLF (Influenza Virus) [SEQ ID NO: 251],3
21,RYTKTTYWW (Influenza Virus) [SEQ ID NO: 246],2
22,SWPDGANINF (Influenza Virus) [SEQ ID NO: 101],2
23,SWPDGANIPF (Influenza Virus) [SEQ ID NO: 100],2
24,SYINRTGTF [SEQ ID NO: 247],3
25,SYLIRALTL [SEQ ID NO: 244],2
26,VFVIREPFI (Influenza Virus) [SEQ ID NO: 97],2
27,WMACHSAAF [SEQ ID NO: 131],2
28,WMMAMKYPI [SEQ ID NO: 295],2
29,WWTSNSIIVF (Influenza Virus) [SEQ ID NO: 99],2

# System: HLA-B7 supertype (B*0702, B*3501, B*5101, B*5301, B*5401)
# Assay type: binding, human
row,Sequence,# Alleles Bound
1,APFSKDNSI (Influenza Virus) [SEQ ID NO: 102],1
2,APPEQSRMQF (Influenza Virus) [SEQ ID NO: 305],1
3,APPKQSRMQF (Influenza Virus) [SEQ ID NO: 304],1
4,APSPYNSRF (Influenza Virus) [SEQ ID NO: 103],2
5,FPNEVGARIL (Influenza Virus) [SEQ ID NO: 302],5
6,FPSSSYRRPV (Influenza Virus) [SEQ ID NO: 260],4
7,GPALSINEL (Influenza Virus) [SEQ ID NO: 306],1
8,GPATAQMAL (Influenza Virus) [SEQ ID NO: 257],2
9,GPVHFRNQV (Influenza Virus) [SEQ ID NO: 301],1
10,IPAEMLASI (Influenza Virus) [SEQ ID NO: 255],4
11,IPKRNRSIL [SEQ ID NO: 259],1
12,LPACVYGLAV (Influenza Virus) [SEQ ID NO: 133],4
13,LPFHNVHPL [SEQ ID NO: 67],5
14,LPRRSGAAGA [SEQ ID NO: 132],2
15,MPAHGPAKSM (Influenza Virus) [SEQ ID NO: 258],4
16,NPALRMKWM (Influenza Virus) [SEQ ID NO: 299],1
17,NPRMFLAMI (Influenza Virus) [SEQ ID NO: 252],1
18,RPCFWVELI [SEQ ID NO: 106],1
19,RPWVSFNQNL (Influenza Virus) [SEQ ID NO: 105],1
20,SPGMMMGMF [SEQ ID NO: 256],1
21,SPQLEGFSA (Influenza Virus) [SEQ ID NO: 196],2
22,SPYNSRFESV (Influenza Virus) [SEQ ID NO: 104],3
23,VPASRYLTDM (Influenza Virus) [SEQ ID NO: 147],2
24,YPKVYKTYF (Influenza Virus) [SEQ ID NO: 300],2

# System: HLA-B44 supertype (B*1801, B*4001, B*4002, B*4403, B*4501)
# Assay type: binding, human
row,Sequence,# Alleles Bound
1,IESVNNAVV (Influenza Virus) [SEQ ID NO: 264],6
2,KEDKRYGPAL (Influenza Virus) [SEQ ID NO: 309],6
3,LEEMSRDWLM (Influenza Virus) [SEQ ID NO: 149],4
4,LETLILLRAF (Influenza Virus) [SEQ ID NO: 150],4
5,LEVEQEIRT (Influenza Virus) [SEQ ID NO: 162],4
6,MEFSLTDPRL (Influenza Virus) [SEQ ID NO: 201],6
7,MEVASQARQM (Influenza Virus) [SEQ ID NO: 79],5
8,PELRSLSSWI (Influenza Virus) [SEQ ID NO: 199],4
9,QEIRTFSFQL [SEQ ID NO: 163],4
10,RELVRKTRFL (Influenza Virus) [SEQ ID NO: 307],4
11,RESRNPGNA (Influenza Virus) [SEQ ID NO: 136],4
12,SEFNKACELT (Influenza Virus) [SEQ ID NO: 200],5
13,SEQAAEAMEV [SEQ ID NO: 78],6
14,SETLQRFAW (Influenza Virus) [SEQ ID NO: 152],3
15,TEVETYVLSI [SEQ ID NO: 76],4
16,WEKYCVLEI (Influenza Virus) [SEQ ID NO: 202],5
17,YEAIEECLI (Influenza Virus) [SEQ ID NO: 205],4

# Source: patent US8865182B2 (priority 2009, dated 2014)
